From patent US10766902B2, “Wee-1 inhibiting pyrazolopyrimidinone compounds” (ALMAC DISCOVERY LIMITED, priority 2016, dated 2020)

These compounds were tested against Wee-1 kinase (Homo sapiens (Human), UniProt P30291) (assay: Measurement of Wee-1 kinase activity (ADP-Glo luminescence)). Conditions: read-out: Wee1 IC50.
Assay type: biochemical
Method: Method 1: Measurement of Wee-1 Kinase Activity
In the measurement of Wee-1 activity, a commercial peptide Poly(Lys Tyr(4:1)) hydrobromide was purchased from Sigma Aldrich and used as the substrate. Activated Wee-1 kinase was purchased from Invitrogen (PV3817) and an ADP-Glo luminescent kit was purchased from Promega.
All reactions took place in […] volumes in reaction buffer containing 40 mM Tris-HCl and 20 mM magnesium chloride, supplemented with 0.1 mg/mL bovine serum albumin and 2 mM DTT. Compounds were serially diluted in buffer and 5 μL of each concentration pipetted into a white 384 well plate (Sigma Aldrich M6186). A 5 μL aliquot of the Wee-1 enzyme was added to each well and the plate centrifuged for 1 min to ensure mixing of the enzyme and inhibitor.
The plate was incubated at room temperature for 30 minutes before the addition of 2.0 μg/mL of substrate and 30 μM ATP in a 5 μL aliquot. The plate was centrifuged for one minute and incubated for 1 h at RT.
15 μL of ADP-Glo stop reagent was added to each well to quench the reaction and deplete unconverted ATP. The plate was incubated for a further 40 min in the dark at RT.
30 μL of ADP-Glo kinase detection reagent was added to each well, converting ADP to ATP, catalysing the generation of luciferin by luciferase. The plate was shaken for 1 min, and incubated in the dark for an additional hour.
Luminescence from each well was detected using the Biotek Synergy4 HD plate reader and the percentage inhibition of kinase activity calculated for each inhibitor tested. Positive (kinase only) and negative (no kinase) controls were added to each plate to ensure specific interaction of kinase and inhibitor. The IC50 concentration for each inhibitor was calculated by plotting the percentage kinase inhibition against concentration of inhibitor and the curve generated by non-linear regression fitting.

Wee-1 kinase, sequence (P30291 whole entry): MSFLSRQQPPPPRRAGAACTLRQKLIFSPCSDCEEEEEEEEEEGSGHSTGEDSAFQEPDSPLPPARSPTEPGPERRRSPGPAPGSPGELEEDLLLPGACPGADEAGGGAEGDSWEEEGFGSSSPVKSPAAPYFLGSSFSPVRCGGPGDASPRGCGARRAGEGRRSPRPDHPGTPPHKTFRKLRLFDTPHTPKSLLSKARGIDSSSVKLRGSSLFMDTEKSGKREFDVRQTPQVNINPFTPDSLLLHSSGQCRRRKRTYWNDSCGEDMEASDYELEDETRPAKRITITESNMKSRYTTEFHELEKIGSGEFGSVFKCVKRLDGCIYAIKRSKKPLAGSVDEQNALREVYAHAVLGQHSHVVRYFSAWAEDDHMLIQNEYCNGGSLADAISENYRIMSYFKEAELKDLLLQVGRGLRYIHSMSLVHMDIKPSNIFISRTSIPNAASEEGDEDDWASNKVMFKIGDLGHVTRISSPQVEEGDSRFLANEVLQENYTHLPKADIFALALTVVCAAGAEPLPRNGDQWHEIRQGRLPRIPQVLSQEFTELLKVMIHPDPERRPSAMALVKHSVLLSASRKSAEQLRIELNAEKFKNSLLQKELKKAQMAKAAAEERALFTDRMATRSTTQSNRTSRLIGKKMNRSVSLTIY

Row | SMILES | IC50
1 | C=CCn1c(=O)c2cnc(Nc3ccc(N4CCOCC4)cc3)nc2n1-c1cccc(N=S(C)(C)=O)c1 [Example 31, 1-(3-{[Dimethyl(oxo)-λ^6-sulfanylidene]amino}phenyl)-6-{[4-(morpholin-4-yl)phenyl]amino}-2-(prop-2-en-1-yl)-1H,2H,3H-pyrazolo[3,4-d]pyrimidin-3-one] | 1.4 nM
2 | CC(C)n1c(=O)c2cnc(N(c3ccc(C#N)cc3)c3ccc(C#N)cc3)nc2n1-c1cccc(N=S(C)(C)=O)n1 [Example 60, 4-[(4-Cyanophenyl)[1-(6-{[dimethyl(oxo)-λ^6-sulfanylidene]amino}pyridin-2-yl)-3-oxo-2-(propan-2-yl)-1H,2H,3H-pyrazolo[3,4-d]pyrimidin-6-yl]amino]benzonitrile] | 760 nM
3 | CS(C)(=O)=Nc1cccc(-n2c3nc(Nc4ccc(N5CCOCC5)cc4)ncc3c(=O)n2CC2CC2)n1 [Example 92, 2-(Cyclopropylmethyl)-1-(6-{[dimethyl(oxo)-λ^6-sulfanylidene]amino}pyridin-2-yl)-6-{[4-(morpholin-4-yl)phenyl]amino}-1H,2H,3H-pyrazolo[3,4-d]pyrimidin-3-one] | 8.8 nM
4 | C=CCn1c(=O)c2cnc(Nc3ccc(N4CCN(CC)CC4)cc3)nc2n1-c1cccc(N=S(C)(C)=O)n1 [Example 10, 1-(6-{[Dimethyl(oxo)-λ^6-sulfanylidene]amino}pyridine-2-yl)-6-{[4-(4-ethylpiperazin-1-yl)phenyl]amino}-2-(prop-2-en-1-yl)-1H,2H,3H-pyrazolo[3,4-d]pyrimidin-3-one] | 0.9 nM
5 | C=CCn1c(=O)c2cnc(Nc3ccc(C4CCNCC4)cc3)nc2n1-c1cccc(N=S(C)(C)=O)n1 [Example 13, 1-(6-{[Dimethyl(oxo)-λ^6-sulfanylidene]amino}pyridine-2-yl)-6-{[4-(piperidin-4-yl)phenyl]amino}-2-(prop-2-en-1-yl)-1H,2H,3H-pyrazolo[3,4-d]pyrimidin-3-one] | 1.2 nM
6 | CC(C)n1c(=O)c2cnc(NC3CCC3)nc2n1-c1cccc(N=S(C)(C)=O)n1 [Example 47, 6-(Cyclobutylamino)-1-(6-{[dimethyl(oxo)-λ^6-sulfanylidene]amino}pyridin-2-yl)-2-(propan-2-yl)-1H,2H,3H-pyrazolo[3,4-d]pyrimidin-3-one] | 67 nM
7 | C=CCn1c(=O)c2cnc(Nc3ccccc3)nc2n1-c1cccc(N=S(C)(C)=O)n1 [Example 19, 1-(6-{[Dimethyl(oxo)-λ^6-sulfanylidene]amino}pyridin-2-yl)-6-(phenylamino)-2-(prop-2-en-1-yl)-1H,2H,3H-pyrazolo[3,4-d]pyrimidin-3-one] | 1 nM
8 | C=CCn1c(=O)c2cnc(Nc3cnn(C)c3)nc2n1-c1cccc(N=S(C)(C)=O)n1 [Example 37, 1-(6-{[Dimethyl(oxo)-λ^6-sulfanylidene]amino}pyridin-2-yl)-6-[(1-methyl-1H-pyrazol-4-yl)amino]-2-(prop-2-en-1-yl)-1H,2H,3H-pyrazolo[3,4-d]pyrimidin-3-one] | 1.3 nM
9 | CC(C)n1c(=O)c2cnc(Nc3ccc(F)cc3)nc2n1-c1cccc(N=S2(=O)CCCC2)n1 [Example 55, 6-[(4-Fluorophenyl)amino]-1-{6-[(1-oxo-1λ^6-thiolan-1-ylidene)amino]pyridin-2-yl}-2-(propan-2-yl)-1H,2H,3H-pyrazolo[3,4-d]pyrimidin-3-one] | 13.3 nM
10 | C=CCn1c(=O)c2cnc(Nc3ccc(N4CCN(C)CC4)c(OC)c3)nc2n1-c1cccc(N=S(C)(C)=O)n1 [Example 24, 1-(6-{[Dimethyl(oxo)-λ^6-sulfanylidene]amino}pyridin-2-yl)-6-{[3-methoxy-4-(4-methylpiperazin-1-yl)phenyl]amino}-2-(prop-2-en-1-yl)-1H,2H,3H-pyrazolo[3,4-d]pyrimidin-3-one] | 1.4 nM
11 | C=CCn1c(=O)c2cnc(Nc3ccc(N4CCNCC4)cc3)nc2n1-c1cccc(N=S(C)(C)=O)n1 [Example 6, 1-(6-{[Dimethyl(oxo)-λ^6-sulfanylidene]amino}pyridine-2-yl)-6-{[4-(piperazin-1-yl)phenyl]amino}-2-(prop-2-en-1-yl)-1H,2H,3H-pyrazolo[3,4-d]pyrimidin-3-one] | 1.8 nM
12 | C#CCn1c(=O)c2cnc(Nc3cnn(C(C)C)c3)nc2n1-c1cccc(N=S(C)(C)=O)n1 [Example 94, 1-(6-((Dimethyl(oxo)-λ^6-sulfaneylidene)amino)pyridin-2-yl)-6-((1-isopropyl-1H-pyrazol-4-yl)amino)-2-(prop-2-yn-1-yl)-1,2-dihydro-3H-pyrazolo[3,4-d]pyrimidin-3-one] | 1.2 nM

These reach a lower IC50. Values come first.

Row | IC50 | SMILES
13 | 0.5 nM | C=CCn1c(=O)c2cnc(Nc3ccc(N4C[C@@H](C)O[C@@H](C)C4)cc3)nc2n1-c1cccc(N=S(C)(C)=O)n1 [Example 32, 1-(6-{[Dimethyl(oxo)-λ^6-sulfanylidene]amino}pyridin-2-yl)-6-{4-([(2S,6R)-2,6-dimethylmorpholin-4-yl]phenyl)amino}-2-(prop-2-en-1-yl)-1H,2H,3H-pyrazolo[3,4-d]pyrimidin-3-one]
14 | 0.4 nM | CC(C)n1c(=O)c2cnc(Nc3ccc(N(C)C)cc3)nc2n1-c1cccc(N=S(C)(C)=O)n1 [Example 58, 1-(6-{[Dimethyl(oxo)-λ^6-sulfanylidene]amino}pyridin-2-yl)-6-{[4-(dimethylamino)phenyl]amino}-2-(propan-2-yl)-1H,2H, 3H-pyrazolo[3,4-d]pyrimidin-3-one]
15 | 0.8 nM | CCCn1c(=O)c2cnc(Nc3ccc(N4CCOCC4)cc3)nc2n1-c1cccc(N=S(C)(C)=O)n1 [Example 38, 1-(6-{[Dimethyl(oxo)-λ^6-sulfanylidene]amino}pyridin-2-yl)-6-{[4-(morpholin-4-yl)phenyl]amino}-2-propyl-1H,2H,3H-pyrazolo[3,4-d]pyrimidin-3-one]
16 | 0.8 nM | C=CCn1c(=O)c2cnc(Nc3ccc(N4CCNCC4)cc3)nc2n1-c1cccc(N=S(C)(C)=O)c1 [Example 18, 1-(3-{[Dimethyl(oxo)-λ^6-sulfanylidene]amino}phenyl)-6-{[4-(piperazin-1-yl)phenyl]amino}-2-(prop-2-en-1-yl)-1H,2H,3H-pyrazolo[3,4-d]pyrimidin-3-one]
17 | 0.7 nM | C=CCn1c(=O)c2cnc(Nc3ccc(N4CCOCC4)c(OC)c3)nc2n1-c1cccc(N=S(C)(C)=O)n1 [Example 25, 1-(6-{[Dimethyl(oxo)-λ^6-sulfanylidene]amino}pyridin-2-yl)-6-{[3-methoxy-4-(morpholin-4-yl)phenyl]amino}-2-(prop-2-en-1-yl)-1H,2H,3H-pyrazolo[3,4-d]pyrimidin-3-one]
18 | 0.4 nM | CC(C)n1c(=O)c2cnc(Nc3ccc(N4CCN(CC(F)(F)F)CC4)cc3)nc2n1-c1cccc(N=S(C)(C)=O)n1 [Example 50, 1-(6-{[Dimethyl(oxo)-λ^6-sulfanylidene]amino}pyridin-2-yl)-2-(propan-2-yl)-6-({4-[4-(2,2,2-trifluoroethyl)piperazin-1-yl]phenyl}amino)-1H,2H,3H-pyrazolo[3,4-d]pyrimidin-3-one]
19 | 0.6 nM | C=CCn1c(=O)c2cnc(Nc3cnn(CC(F)(F)F)c3)nc2n1-c1cccc(N=S(C)(C)=O)n1 [Example 85, 1-(6-{[Dimethyl(oxo)-λ^6-sulfanylidene]amino}pyridin-2-yl)-2-(prop-2-en-1-yl)-6-{[1-(2,2,2-trifluoroethyl)-1H-pyrazol-4-yl]amino}-1H,2H,3H-pyrazolo[3,4-d]pyrimidin-3-one]
20 | 0.4 nM | C=CCn1c(=O)c2cnc(Nc3ccc(N(C)C)c(C(O)C(F)(F)F)c3)nc2n1-c1cccc(N=S(C)(C)=O)n1 (racemic) [Example 83, rac-1-(6-{[Dimethyl(oxo)-λ^6-sulfanylidene]amino}pyridin-2-yl)-6-{[4-(dimethylamino)-3-(2,2,2-trifluoro-1-hydroxyethyl)phenyl]amino}-2-(prop-2-en-1-yl)-1H,2H,3H-pyrazolo[3,4-d]pyrimidin-3-one]
21 | 0.5 nM | COC[C@@H]1CN(c2ccc(Nc3ncc4c(=O)n(C(C)C)n(-c5cccc(N=S(C)(C)=O)n5)c4n3)cc2)CCO1 [Example 53, 1-(6-{[Dimethyl(oxo)-λ^6-sulfanylidene]amino}pyridin-2-yl)-6-({4-[(2S)-2-(methoxymethyl)morpholin-4-yl]phenyl}amino)-2-(propan-2-yl)-1H,2H,3H-pyrazolo[3,4-d]pyrimidin-3-one]
22 | 0.2 nM | C=CCn1c(=O)c2cnc(Nc3ccc(N4CCC4)cc3)nc2n1-c1cccc(N=S(C)(C)=O)n1 [Example 90, 6-{[4-(Azetidin-1-yl)phenyl]amino}-1-(6-{[dimethyl(oxo)-λ^6-sulfanylidene]amino}pyridin-2-yl)-2-(prop-2-en-1-yl)-1H,2H,3H-pyrazolo[3,4-d]pyrimidin-3-one]
23 | 0.2 nM | C=CCn1c(=O)c2cnc(Nc3ccc(F)cc3)nc2n1-c1cccc(N=S(C)(C)=O)n1 [Example 40, 1-(6-{[Dimethyl(oxo)-λ^6-sulfanylidene]amino}pyridin-2-yl)-6-[(4-fluorophenyl)amino]-2-(prop-2-en-1-yl)-1H,2H,3H-pyrazolo[3,4-d]pyrimidin-3-one]
